Columns and labels:
[1] = system: HCT116 (human colorectal cancer cells); test: In vivo tumor growth inhibition, HCT116 xenograft; set-up: species or system Athymic Nude-Foxn1nu mice
Protocol: HCT116 (human colorectal cancer cells): Female 7-8 weeks old Athymic Nude-Foxn1nu mice were inoculated subcutaneously on the right flank with HCT116 tumor cells (5 ×10^6) in 0.1 ml of McCoy's 5a medium without serum for tumor development. Single agent HC-7366 was dosed at 3 or 30 mg/kg (twice daily, orally), Trametinib at 1 mg/kg (once a day, orally) and Alpelisib at 50 mg/kg (once a day, orally). HC-7366 was combined with either Trametinib or Alpelisib. The treatments were started when the mean tumor size reached approximately 270 mm^3 at Day 18 post inoculation and continued until end of study (FIGS. 63-64).
(§1) [formula] • 2.2.2 Tumor Measurements: The measurement of tumor size was conducted three times weekly with a caliper and recorded. The tumor volume (mm^3) was estimated using the formula: TV=a×b^2/2, where “a” and “b” is long and short diameters of a tumor, respectively. Tumor volume was calculated using the formula [tumor volume (mm^3)=π/6×length×width^2).
(§2) Regression was calculated using the formula=100×ΔT/T initial, if ΔT<0. Animals with 0 mm^3 tumor volume (no measurable tumor) for three consecutive measurements were considered as complete responders and animals with 50% tumor regressions were partial responders.

[2] = system: MOLM-16 (human AML cells); test: In vivo tumor growth inhibition, MOLM-16 xenograft; set-up: species or system NOD SCID mice
Protocol: MOLM-16 (human AML cells): Female 6-8 weeks old nonobese diabetic/severe combined immunodeficiency (NOD SCID) mice were inoculated subcutaneously on the right flank with MOLM-16 tumor cells (1×10^7) in RPMI 1640 without serum for tumor development. The treatments were started when the mean tumor size reached approximately 220 mm^3 at Day 14 after cell inoculation and continued until end of study by twice daily oral gavage dosing of HC-7366 at listed doses (vehicle, 0.25 mg/kg HC-7366, 0.5 mg/kg HC-7366, 1 mg/kg HC-7366, or 2 mg/kg HC-7366, FIG. 16)
as §1, §2

MOLM-16 cells = test: CTG viability assay, MOLM-16 sgControl and sgGCN2 cells; format: cell-based, human; settings: 24 or 48 hr
Protocol: MOLM-16 cells were obtained from DSMZ (#ACC 555) and were cultured in RPMI 1640 (Gibco, #11875119) with 20% FBS (Invitrogen, #10099141C) at 37° C. and 5% CO2. MOLM-16 GCN2 CRISPR knockout cells (sgGCN2) were generated and compared to control cells (sgControl). For viability experiments, cells were plated in 384-well cell culture plates and incubated overnight. Compounds were diluted in 8 concentrations by 3-fold dilution in 384pp-plate using TECAN EVO200 to a final concentration ranging from […]. The plates were incubated for 24 or 48 hr and viability was assessed by adding CellTiter-Glo® 2.0 Assay according to the manufacturer's protocol (Promega, G9243) to each well. The plates were then incubated at RT for 30 min. The luminescent signals were read by Envision (PerkinElmer) plate reader and analyzed by Prism.

CTG-2229 = test: Ex vivo AML PDX cell viability (Cell Titer Glo); format: cell-based; settings: Homo sapiens, 144 h; PDX model CTG-2229, 6 days; read-out: HC-7366 EC50
Protocol: . Cell viability was assayed after treating PDX models with DMSO or HC-7366 for 6 days using a plate-based luminescence assay (Cell Titer Glo). […]
EC50 values were calculated to the bottom of the curve and are provided below. Viability curves are provided for the models CTG-2229 (FIG. 81), CTG-3680 (FIG. 82), CTG-3667 (FIG. 83), CTG-2456 (FIG. 84), CTG-2457 (FIG. 85), and CTG-2454 (FIG. 86).

[3] = system: LNCaP (human prostate cancer cells); test: In vivo tumor growth inhibition, LNCaP xenograft; set-up: species or system NOD SCID mice; settings: ≥3 mg/kg twice daily oral
Protocol: LNCaP (human prostate cancer cells): Male 6-8 weeks old NOD SCID mice were inoculated subcutaneously on the right flank with LNCaP tumor cells (1×10^7) in 0.1 ml with Matrigel (1:1) in RPMI1640 with 10% fetal bovine serum (FBS) for tumor development. The treatments were started when the mean tumor size reached approximately 207 mm^3 at Day 14 post inoculation and continued until end of study by twice daily oral gavage dosing of HC-7366 at listed doses (vehicle, 0.3 mg/kg HC-7366, 1 mg/kg HC-7366, 3 mg/kg HC-7366, 10 mg/kg HC-7366, or 30 mg/kg HC-7366 twice daily, FIG. 14).
as §1, §2

[4] = system: NCI-H1975 (human non-small cell lung cancer cells); test: In vivo tumor growth inhibition, NCI-H1975 xenograft; set-up: species or system Athymic Nude-Foxn1nu mice; settings: HC-7366 3 mg/kg twice daily oral
Protocol: NCI-H1975 (human non-small cell lung cancer cells): Female 7-8 weeks old Athymic Nude-Foxn1nu mice were inoculated subcutaneously on the right flank with NCI-H1975 tumor cells (2.5×10^6) in 0.1 ml of RPMI1640 medium without serum for tumor development. Single agent HC-7366 was dosed at 3 mg/kg, osimertinib at 2.5 mg/kg and dacomitinib at 15 mg/kg. HC-7366 was combined with either osimertinib or dacomitinib. The vehicle for the groups was 0.5% methyl cellulose. The treatments were started when the mean tumor size reached approximately 205 mm^3 at Day 22 post inoculation and continued until end of study. HC-7366 was given twice daily by oral gavage whereas osimertinib or dacomitinib were administered once a day by oral gavage (FIGS. 131 and 133).
as §1, §2

FaDu tumors and plasma = test: Metabolomic analysis of tumor and plasma, FaDu tumor bearing mice; format: in vivo
Protocol: FaDu tumor bearing mice were treated with vehicle or HC-7366 (1, 3, or 30 mg/kg) twice a day orally for three days, and on the morning of Day 4 an AM dose was administered and tumors and plasma were collected 1 hr after dose. Tumor and plasma samples were extracted and split into equal parts for analysis on LC/MS/MS and Polar LC platforms. Proprietary software was used to match ions to an in-house library of standards for metabolite identification and for metabolite quantitation by peak area integration (Metabolon). Proteomic analysis on tumors was performed at MS Bioworks. The equivalent of 3 μg of peptide from each pooled fraction was analyzed by nano LC-MS/MS with a Waters M-Class HPLC system interfaced to a ThermoFisher Fusion Lumos mass spectrometer. Histograms show metabolite levels of treatment groups normalized to vehicle control (FIGS. 115-122).

With CNC(=O)c1ncn2cc(-c3c(F)ccc(NS(=O)(=O)c4cc(Cl)cnc4OC)c3F)ncc12 [HC-7366, 6-(3-((5-chloro-2-methoxypyridine)-3-sulfonamido)-2,6-difluorophenyl)-N-methylimidazo[1,5-a]pyrazine-1-carboxamide] the TGI ([1]; HC-7366 3 mg/kg twice daily, alpelisib study (FIG. 63), trend) was roughly 38%, the “effect on tumor growth” value ([1]; HC-7366 30 mg/kg twice daily, alpelisib study (FIG. 63)) was “did not reduce tumor growth” and the efficacy ([1]; HC-7366 at either 3 or 30 mg/kg, trametinib study (FIG. 64)) was “did not show efficacy”. The “effect on xenograft tumors” value ([2]; 2 mg/kg twice daily oral) was “complete eradication”, the “effect on xenograft tumors” value ([2]; other doses (0.25, 0.5, 1 mg/kg twice daily)) was “tumor growth inhibition” and the viability response (MOLM-16 cells; GCN2 CRISPR knockout cells) was “reversed”. The viability (MOLM-16 cells; GCN2 wild-type (sgControl), lower concentrations, U-shaped manner) was “potently reduced viability”, the EC50 (CTG-2229) was 34 µM and the tumor growth inhibition [3] was 61-65%. The TGI [4] was 59%, the urea levels (FaDu tumors and plasma; plasma) was “significantly increased” and the oxidized glutathione levels (FaDu tumors and plasma; tumor) was “significantly reduced”. The reduced glutathione levels (FaDu tumors and plasma; tumor) was “did not alter”, the “gamma glutamyl amino acid levels” value (FaDu tumors and plasma; tumor and plasma) was “significantly increased” and the “levels of several amino acids” value (FaDu tumors and plasma; tumor and plasma, 1, 3, or 30 mg/kg twice a day, Day 4) was “significantly elevated”. The “levels of arginine, arginosuccinate and citrulline” value (FaDu tumors and plasma; tumors) was “significantly increased” and the pyrimidine synthesis metabolites (FaDu tumors and plasma; tumors) was “significantly reduced”.

— US20250339426A1, “GCN2 MODULATOR FOR TREATING CANCER” (HIBERCELL, INC., priority 2022, published 2025)
